Experimental data published in patent publication US4554284A, “7-(2-Aminoethyl)-1,3-benzthia- or oxa-zol-2(3H)-ones” (Smithkline Beckman Corporation, priority 1984, dated 1985).
pEC50: −log10 of the molar value. Where two headings read alike, the source gives them in different places.

Molecular target: T1, D2-receptors (presynaptic dopaminergic receptors) (Oryctolagus cuniculus, UniProt G1T1Q0)
T1 construct: perfused rabbit ear artery protocol; from tissue; host or cells: rabbit ear artery (perfused, isolated)
T1 sequence (G1T1Q0 1-443): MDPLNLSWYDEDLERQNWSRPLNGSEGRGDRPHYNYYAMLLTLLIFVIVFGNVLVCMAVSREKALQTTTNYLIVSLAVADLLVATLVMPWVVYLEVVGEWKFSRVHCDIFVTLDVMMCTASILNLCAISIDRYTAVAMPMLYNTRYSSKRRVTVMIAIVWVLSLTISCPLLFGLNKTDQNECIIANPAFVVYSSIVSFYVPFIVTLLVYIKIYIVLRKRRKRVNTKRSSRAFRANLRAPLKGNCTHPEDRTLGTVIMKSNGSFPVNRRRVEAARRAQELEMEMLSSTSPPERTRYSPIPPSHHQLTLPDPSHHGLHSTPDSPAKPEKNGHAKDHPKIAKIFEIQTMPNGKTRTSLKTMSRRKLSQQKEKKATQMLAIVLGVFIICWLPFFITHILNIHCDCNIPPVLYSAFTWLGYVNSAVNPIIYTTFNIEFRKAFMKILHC
Test: perfused rabbit ear artery protocol (D2-agonist activity)
Type: cell-based

[1] = perfused rabbit ear artery, D2-agonist activity, read-out: EC50

Row | Structure (SMILES) | pEC50 [1] | times more potent than its oxa congener [times] | times more potent than the corresponding indolone [times] | pEC50
1 | CCCN(CCC)CCc1c(Cl)cc(O)c2nc(O)sc12 [B, 4-hydroxy-6-chloro-7-[2-(di-n-propylamino)ethyl]-1,3-benzthiazol-2(3H)-one] | 7.30 | – | – | –
2 | CCCN(CCC)CCc1ccc(O)c2[nH]c(=O)oc12 [C, 4-hydroxy-7-[2-(di-n-propylamino)ethyl]-1,3-benzoxazol-2(3H)-one] | 8.10 | – | – | –
3 | CCCN(CCC)CCc1ccc(O)c2[nH]c(=O)sc12 [Compound A, 4-hydroxy-7-[2-(di-n-propylamino)ethyl]-1,3-benzthiazol-2(3H)-one] | 9.70 | ~40 | 10 | –
4 | NCCc1ccc(O)c(O)c1 [D, dopamine, reference compound] | – | – | – | 7.40
5 | CCCN(CCC)CCc1ccc(O)c2[nH]c(=O)ccc12 [E, 8-hydroxy-5-[2-(di-n-propylamino)ethyl]-carbostyril, reference compound] | 6.70 | – | – | –
